Measurements as given in patent publication US10112918B2, “15-oxospiramilactone derivatives, preparation method and uses thereof” (Kunming Institute of Botany, The Chinese Academy of Sciences, priority 2013, dated 2018).

Test system: MCF-7 (human breast cancer cells)
Test: MTT inhibition of tumor cell growth, MCF-7
Assay type: cell-based
Conditions: Homo sapiens, MCF7, 48 h
Procedure, shortened: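 IC50 derived by Reed and Muench two-point method from A595 after MTT (4 h) and overnight 10% SDS solubilization. Compound treatment lasted 48 h at 37 °C, screened at 40 μM then 5 concentrations for actives, in triplicate; 5000-10000 cells/well in 10% FBS medium.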

Measured: IC50

C=C1C(=O)[C@]23CC[C@H]1CC2[C@@]12CCC[C@@](C)(COC1=O)C2C[C@H]3O (stereo partly drawn) [Compound 1, 15-oxospiramilactone]
3.25 µM: Table 1, 7-hydroxy derivatives of S-3 | Table 2, derivatives having potential Michael reaction acceptor | Table 3, single Michael reaction acceptor, modified lactonic ring | Table 4, derivatives obtained by reduction of the lactonic ring | Table 5, derivatives having double Michael reaction acceptor | Table 7 (first), alkaloid derivatives
